According to patent US12139487B2, “Compounds and uses thereof” (Foghorn Therapeutics Inc., priority 2022, dated 2024):

Tested on: BRM-dependent transcription (BRG1 mutant lung cancer cell line A549)
Assay: BRM-dependent transcription, MMTV luciferase reporter in BRG1 mutant A549 cells
Assay type: cell-based
Settings: Table 11; for IC50: Homo sapiens, A549, 6 h, A549-MMTV luciferase reporter, dexamethasone induced, 6 hours; for Ratio (MDA-MMTV IC50 (μM) divided by A549-MMTV IC50 (μM)): MMTV luciferase reporter cell lines, selectivity BRG1/BRM
Method: The potential inhibitory effects of compounds on BRG1 and BRM dependent transcription was study by testing the activity of against the BRG1 mutant lung cancer cell line A549 and a MDA cell line with BRM removed by CRISPR. Both cell lines were genetically engineered with a BRG1 or BRM-dependent mouse mammary tumor virus luciferase reporter. Luciferase transcription was induced by dexamethasone in the presence of compound at different concentrations and luminescence was measured using a plate reader 6 hours after stimulation.

Compound | IC50 | Ratio (MDA-MMTV IC50 (μM) divided by A549-MMTV IC50 (μM))
O=C(NCc1cc2nc(-c3cccc(OC(F)(F)Cl)n3)ccc2cn1)c1cc(Cl)c2c(c1)S(=O)(=O)[C@@H](F)CCO2 [Compound 362] | 22.2 nM | 31.16
COc1nc([C@](C)(F)C(F)F)ccc1-c1ccc2cnc(CNC(=O)c3cc(F)c4c(c3)S(=O)(=O)[C@@H](F)CCO4)cc2n1 [Compound 363] | 16.9 nM | 22.45
O=C(NCc1cc2nc(-c3cccc(C4CC4)n3)ccc2cn1)c1ccc2c(c1)S(=O)(=O)[C@@H](F)CCOC2 [Compound 364] | 1.9 nM | 22.21
COc1nc(C(F)F)ccc1-c1ccc2cnc(CNC(=O)c3cc(Br)c4c(c3)S(=O)(=O)[C@@H](F)CCO4)cc2n1 [Compound 365] | 21.3 nM | 24.82
COc1nc([C@@H](C)C(F)F)ccc1-c1ccc2cnc(CNC(=O)c3cc(F)c4c(c3)S(=O)(=O)[C@@H](F)CCO4)cc2n1 [Compound 366] | 24.1 nM | 29.97
COc1nc([C@](C)(F)C(F)F)ccc1-c1ccc2cnc(CNC(=O)c3cc(F)c4c(c3)S(=O)(=O)[C@@H](F)CCOC4)cc2n1 [Compound 367] | 3 nM | 17.70
COc1nc([C@@](C)(F)C(F)F)ccc1-c1ccc2cnc(CNC(=O)c3cc(F)c4c(c3)S(=O)(=O)[C@@H](F)CCOC4)cc2n1 [Compound 368] | 2.2 nM | 17.34
COc1ccc(-c2ccc3cnc(CNC(=O)c4cc(Cl)c5c(c4)S(=O)(=O)[C@@H](F)CCO5)cc3n2)nc1C1CC1(F)F (stereo partly shown) [Compound 369] | 17.1 nM | 26.85
CCOc1ccc(-c2ccc3cnc(CNC(=O)c4cc(Cl)c5c(c4)S(=O)(=O)[C@@H](F)CCO5)cc3n2)nc1C1CC1(F)F (stereo partly shown) [Compound 370] | 20.5 nM | 27.27
O=C(NCc1cc2nc(-c3ccc(C(F)F)c(C4CC4)n3)ccc2cn1)c1cc(Cl)c2c(c1)S(=O)(=O)[C@@H](F)CCO2 [Compound 371] | 7.9 nM | 21.86
C[C@@H]1CN(c2cccc(-c3ccc4cnc(CNC(=O)c5cc(C#N)c6c(c5)S(=O)(=O)[C@@H](F)CCO6)cc4n3)n2)C[C@H](C)O1 [Compound 372] | 7.6 nM | 21.84
O=C(NCc1cc2nc(-c3cnc(OC(F)F)c(C4CC4)n3)ccc2cn1)c1cc(F)c2c(c1)S(=O)(=O)[C@@H](F)CCO2 [Compound 373] | 14.9 nM | 23.16
[2H]C1([2H])Oc2c(F)cc(C(=O)NCc3cc4nc(-c5ccc(OCC)c(C6CC6(F)F)n5)ccc4cn3)cc2S(=O)(=O)[C@@]([2H])(F)C1([2H])[2H] (stereo partly shown) [Compound 374] | 17.8 nM | 54.50
CCOc1nc([C@H](C)F)ccc1-c1ccc2cnc(CNC(=O)c3cc(F)c4c(c3)S(=O)(=O)[C@@H](F)CCO4)cc2n1 [Compound 375] | 6.5 nM | 36.69
CCOc1nc([C@@H](C)F)ccc1-c1ccc2cnc(CNC(=O)c3cc(F)c4c(c3)S(=O)(=O)[C@@H](F)CCO4)cc2n1 [Compound 376] | 15.3 nM | 22.09
[2H]C([2H])([2H])C([2H])([2H])Oc1ccc(-c2ccc3cnc(CNC(=O)c4cc(F)c5c(c4)S(=O)(=O)[C@@]([2H])(F)C([2H])([2H])C([2H])([2H])O5)cc3n2)nc1C1CC1(F)F (stereo partly shown) [Compound 378] | 11.1 nM | 43.63
[2H]C1([2H])OC([2H])([2H])[C@H](F)S(=O)(=O)c2cc(C(=O)NCc3cc4nc(-c5cccc(OC(F)F)n5)ccc4cn3)cc(F)c21 [Compound 379] | 20 nM | 22.55
COc1nc([C@H](F)CF)ccc1-c1ccc2cnc(CNC(=O)c3cc(Cl)c4c(c3)S(=O)(=O)[C@@H](F)COC4)cc2n1 [Compound 380] | 9.1 nM | 33.44
COc1nc([C@@H](F)CF)ccc1-c1ccc2cnc(CNC(=O)c3cc(Cl)c4c(c3)S(=O)(=O)[C@@H](F)COC4)cc2n1 [Compound 381] | 6.8 nM | 29.06

Compound | IC50 | Ratio (MDA-MMTV IC50 (μM) divided by A549-MMTV IC50 (μM))
COc1nc([C@@H](F)CF)ccc1-c1ccc2cnc(CNC(=O)c3cc(Cl)c4c(c3)S(=O)(=O)[C@@H](F)CCO4)cc2n1 [Compound 382] | 9.6 nM | 40.88
COc1nc([C@@H](F)CF)ccc1-c1ccc2cnc(CNC(=O)c3cc(Br)c4c(c3)S(=O)(=O)[C@@H](F)CCO4)cc2n1 [Compound 383] | 21.8 nM | 24.64
[2H]C([2H])([2H])Oc1nc([C@H](C)F)ccc1-c1ccc2cnc(CNC(=O)c3cc(F)c4c(c3)S(=O)(=O)[C@@H](F)CCO4)cc2n1 [Compound 384] | 6.4 nM | 29.60
Cc1cc(C(=O)NCc2cc3nc(-c4ccc(C(F)F)c(C5CC5)n4)ccc3cn2)cc2c1OCC[C@H](F)S2(=O)=O [Compound 385] | 20.9 nM | 22.49
O=C(NCc1cc2nc(-n3cc(F)c(OC4CC4)n3)ccc2cn1)c1cc(F)c2c(c1)S(=O)(=O)[C@@H](F)CCO2 [Compound 386] | 26 nM | 23.22
O=C(NCc1cc2nc(-c3cccc(OCC(F)F)n3)ccc2cn1)c1cc(Cl)c2c(c1)S(=O)(=O)[C@@H](F)COC2 [Compound 387] | 17.3 nM | 34.06
COc1nc(OC(F)F)ccc1-c1ccc2cnc(CNC(=O)c3cc(F)c4c(c3)S(=O)(=O)[C@@H](F)CCO4)cc2n1 [Compound 388] | 7.3 nM | 26.43
C[C@H](F)c1ccc(-c2ccc3cnc(CNC(=O)c4cc(F)c5c(c4)S(=O)(=O)[C@@H](F)CCO5)cc3n2)c(OC(F)F)n1 [Compound 389] | 3.2 nM | 26.77
CCOc1nc([C@H](F)CF)ccc1-c1ccc2cnc(CNC(=O)c3cc(F)c4c(c3)S(=O)(=O)[C@@H](F)CCO4)cc2n1 [Compound 390] | 7.4 nM | 22.68
O=C(NCc1cc2nc(-c3ccc([C@@H](F)CF)nc3OC(F)F)ccc2cn1)c1cc(F)c2c(c1)S(=O)(=O)[C@@H](F)CCO2 [Compound 391] | 2.1 nM | 24.21
O=C(NCc1cc2nc(-c3ccc([C@H](F)CF)nc3OC(F)F)ccc2cn1)c1cc(F)c2c(c1)S(=O)(=O)[C@@H](F)CCO2 [Compound 392] | 4.7 nM | 24.22
C#Cc1cc(C(=O)NCc2cc3nc(-c4cccc(N5C[C@@H](C)O[C@@H](C)C5)n4)ccc3cn2)cc2c1COC[C@H](F)S2(=O)=O [Compound 393] | 20.3 nM | 36.31
[2H]C([2H])([2H])Oc1nc([C@H](F)CF)ccc1-c1ccc2cnc(CNC(=O)c3cc(F)c4c(c3)S(=O)(=O)[C@@H](F)CCO4)cc2n1 [Compound 394] | 9.2 nM | 24.90
CCOc1nc([C@H](C)F)ccc1-c1ccc2cnc(CNC(=O)c3cc(F)c4c(c3)S(=O)(=O)[C@@H](F)COC4)cc2n1 [Compound 395] | 4.7 nM | 21.65
CC(C)c1ccc(-c2ccc3cnc(CNC(=O)c4cc(F)c5c(c4)S(=O)(=O)[C@@H](F)CCO5)cc3n2)nc1C1CC1 [Compound 396] | 13.8 nM | 25.74
Cc1cc(C(=O)NCc2cc3nc(-c4ccc(C(F)F)c(C5CC5)n4)ccc3cn2)cc2c1COC[C@H](F)S2(=O)=O [Compound 397] | 5.3 nM | 29.48
O=C(NCc1cc2nc(-c3ccc(C(F)F)c(C4CC4(F)F)n3)ccc2cn1)c1cc(F)c2c(c1)S(=O)(=O)[C@@H](F)CCO2 (stereo partly shown) [Compound 399] | 12.9 nM | 24.67
O=C(NCc1cc2nc(-c3ccc(OC(F)F)c(C4CC4)n3)ccc2cn1)c1cc(Br)c2c(c1)S(=O)(=O)[C@@H](F)CCO2 [Compound 400] | 25.1 nM | 47.75
CC(C)c1ccc(-c2ccc3cnc(CNC(=O)c4cc(Br)c5c(c4)S(=O)(=O)[C@@H](F)CCO5)cc3n2)c(OC(F)F)n1 [Compound 402] | 21.7 nM | 26.98
